{"source": "patent US20250382273A1", "about": "(INSTITUT NATIONAL DE LA SANTE ET DE LA RECHERCHE MEDICALE, priority 2022, published 2025)"}
{"test_system": "M. tuberculosis H37Rv_gfp", "assay_type": "cell-based, Mycobacterium tuberculosis", "details": "in combination with pretomanid 20 ng·mL−1; 5 days at 37° C.; […]; read-out: EC50 H37Rv_gfp", "units": {"EC50": "µM"}}
{"smiles": "Cc1ccc2nc(NC(=O)[C@@H]3C4CCC(C4)[C@@H]3C(=O)O)sc2c1", "note": "(stereo in doubt) [Example 3, 3-[(6-methyl-1,3-benzothiazol-2-yl)carbamoyl]norbornane-2-carboxylic acid]", "EC50": "1 to 5"}
{"smiles": "Cc1ccc2nc(N3C(=O)[C@@H]4[C@@H]5CC[C@@H](C5)[C@@H]4C3=O)sc2c1", "note": "[Example 4, (1S,2S,6R,7R)-4-(6-methyl-1,3-benzothiazol-2-yl)-4-azatricyclo[5.2.1.02,6]decane-3,5-dione]", "EC50": "10 to 20"}
{"smiles": "COc1ccc2sc(NC(=O)[C@@H]3C4C=CC(C4)[C@@H]3C(=O)O)nc2c1", "note": "(stereo partly drawn) [Example 5, 3-[(5-methoxy-1,3-benzothiazol-2-yl)carbamoyl]bicyclo[2.2.1]hept-5-ene-2-carboxylic acid]", "EC50": "1 to 5"}
{"smiles": "COc1ccc2nc(NC(=O)[C@@H]3C4C=CC(C4)[C@@H]3C(=O)O)sc2c1", "note": "(stereo partly drawn) [Example 6, 3-[(6-methoxy-1,3-benzothiazol-2-yl)carbamoyl]bicyclo[2.2.1]hept-5-ene-2-carboxylic acid]", "EC50": "1 to 5"}
{"smiles": "CCOc1ccc2nc(NC(=O)[C@@H]3C4C=CC(C4)[C@@H]3C(=O)O)sc2c1", "note": "(stereo partly drawn) [Example 7, 3-[(6-ethoxy-1,3-benzothiazol-2-yl)carbamoyl]bicyclo[2.2.1]hept-5-ene-2-carboxylic acid]", "EC50": "< 1"}
{"smiles": "CCOc1ccc2nc(N3C(=O)[C@@H]4[C@H](C3=O)[C@@H]3C=C[C@H]4C3)sc2c1", "note": "[Example 8, (1R,2S,6R,7S)-4-(6-ethoxy-1,3-benzothiazol-2-yl)-4-azatricyclo[5.2.1.02,6]dec-8-ene-3,5-dione]", "EC50": "< 1"}
{"smiles": "COc1cc2nc(NC(=O)[C@@H]3C4C=CC(C4)[C@@H]3C(=O)O)sc2cc1OC", "note": "(stereo partly drawn) [Example 9, 3-[(5,6-dimethoxy-1,3-benzothiazol-2-yl)carbamoyl]bicyclo[2.2.1]hept-5-ene-2-carboxylic acid]", "EC50": "5 to 10"}
{"smiles": "O=C(Nc1nc2cc3c(cc2s1)OCCO3)[C@@H]1C2C=CC(C2)[C@@H]1C(=O)O", "note": "(stereo partly drawn) [Example 10, 3-(6,7-dihydro-[1,4]dioxino[2,3-f][1,3]benzothiazol-2-ylcarbamoyl) bicyclo[2.2.1]hept-5-ene-2-carboxylic acid]", "EC50": "10 to 20"}
{"smiles": "CCc1ccc2nc(NC(=O)[C@@H]3C4C=CC(C4)[C@@H]3C(=O)O)sc2c1", "note": "(stereo partly drawn) [Example 11, 3-[(6-ethyl-1,3-benzothiazol-2-yl)carbamoyl]bicyclo[2.2.1]hept-5-ene-2-carboxylic acid]", "EC50": "< 1"}
{"smiles": "CC(C)(C)c1ccc2nc(NC(=O)[C@@H]3C4C=CC(C4)[C@@H]3C(=O)O)sc2c1", "note": "(stereo partly drawn) [Example 12, 3-[(6-tert-butyl-1,3-benzothiazol-2-yl)carbamoyl]bicyclo[2.2.1]hept-5-ene-2-carboxylic acid]", "EC50": "< 1"}
{"smiles": "Cc1cc(C)c2nc(NC(=O)[C@@H]3C4C=CC(C4)[C@@H]3C(=O)O)sc2c1", "note": "(stereo partly drawn) [Example 13, 3-[(4,6-dimethyl-1,3-benzothiazol-2-yl)carbamoyl]bicyclo[2.2.1]hept-5-ene-2-carboxylic acid]", "EC50": "< 1"}
{"smiles": "Cc1cc2nc(NC(=O)[C@@H]3C4C=CC(C4)[C@@H]3C(=O)O)sc2cc1C", "note": "(stereo partly drawn) [Example 14, 3-[(5,6-dimethyl-1,3-benzothiazol-2-yl)carbamoyl]bicyclo[2.2.1]hept-5-ene-2-carboxylic acid]", "EC50": "< 1"}
{"smiles": "Cc1ccc2sc(NC(=O)[C@@H]3C4C=CC(C4)[C@@H]3C(=O)O)nc2c1C", "note": "(stereo partly drawn) [Example 15, 3-[(4,5-dimethyl-1,3-benzothiazol-2-yl)carbamoyl]bicyclo[2.2.1]hept-5-ene-2-carboxylic acid]", "EC50": "< 1"}
{"smiles": "Cc1cccc2sc(NC(=O)[C@@H]3C4C=CC(C4)[C@@H]3C(=O)O)nc12", "note": "(stereo partly drawn) [Example 16, 3-[(4-methyl-1,3-benzothiazol-2-yl)carbamoyl]bicyclo[2.2.1]hept-5-ene-2-carboxylic acid]", "EC50": "< 1"}
{"smiles": "O=C(Nc1nc2ccc(Oc3ccccc3)cc2s1)[C@@H]1C2C=CC(C2)[C@@H]1C(=O)O", "note": "(stereo partly drawn) [Example 17, 3-[(6-phenoxy-1,3-benzothiazol-2-yl)carbamoyl]bicyclo[2.2.1]hept-5-ene-2-carboxylic acid]", "EC50": "< 1"}
{"smiles": "O=C1[C@@H]2[C@H](C(=O)N1c1nc3ccc(Oc4ccccc4)cc3s1)[C@@H]1C=C[C@H]2C1", "note": "[Example 19, (1R,2S,6R,7S)-4-(6-phenoxy-1,3-benzothiazol-2-yl)-4-azatricyclo[5.2.1.02,6]dec-8-ene-3,5-dione]", "EC50": "< 1"}
{"smiles": "O=C(Nc1nc2ccc(Cc3ccccc3)cc2s1)[C@@H]1C2C=CC(C2)[C@@H]1C(=O)O", "note": "(stereo partly drawn) [Example 20, 3-[(6-benzyl-1,3-benzothiazol-2-yl)carbamoyl]bicyclo[2.2.1]hept-5-ene-2-carboxylic acid]", "EC50": "< 1"}
{"smiles": "O=C(Nc1nc2ccc(Oc3ccc(F)cc3)cc2s1)[C@@H]1C2C=CC(C2)[C@@H]1C(=O)O", "note": "(stereo partly drawn) [Example 21, 3-[[6-(4-fluorophenoxy)-1,3-benzothiazol-2-yl]carbamoyl]bicyclo[2.2.1]hept-5-ene-2-carboxylic acid]", "EC50": "< 1"}
{"smiles": "O=C(Nc1nc2ccc(Oc3ccc(C(F)(F)F)cc3)cc2s1)[C@@H]1C2C=CC(C2)[C@@H]1C(=O)O", "note": "(stereo partly drawn) [Example 22, 3-[[6-[4-(trifluoromethyl)phenoxy]-1,3-benzothiazol-2-yl]carbamoyl]bicyclo[2.2.1]hept-5-ene-2-carboxylic acid]", "EC50": "1 to 5"}
{"smiles": "O=C1[C@@H]2[C@H](C(=O)N1c1nc3ccc(Oc4ccc(C(F)(F)F)cc4)cc3s1)[C@@H]1C=C[C@H]2C1", "note": "[Example 23, (1R,2S,6R,7S)-4-[6-[4-(trifluoromethyl)phenoxy]-1,3-benzothiazol-2-yl]-4-azatricyclo[5.2.1.02,6]dec-8-ene-3,5-dione]", "EC50": "1 to 5"}
{"smiles": "O=C(Nc1nc2ccc(Oc3ccncc3)cc2s1)[C@@H]1C2C=CC(C2)[C@@H]1C(=O)O", "note": "(stereo partly drawn) [Example 24, 3-[[6-(4-pyridyloxy)-1,3-benzothiazol-2-yl]carbamoyl]bicyclo[2.2.1]hept-5-ene-2-carboxylic acid]", "EC50": "5 to 10"}
{"smiles": "O=C(Nc1nc2ccc(Oc3ncccc3C(F)(F)F)cc2s1)[C@@H]1C2C=CC(C2)[C@@H]1C(=O)O", "note": "(stereo partly drawn) [Example 25, 3-[[6-[[3-(trifluoromethyl)-2-pyridyl]oxy]-1,3-benzothiazol-2-yl]carbamoyl]bicyclo[2.2.1]hept-5-ene-2-carboxylic acid]", "EC50": "1 to 5"}
{"smiles": "O=C1[C@@H]2[C@H](C(=O)N1c1nc3ccc(Oc4ncccc4C(F)(F)F)cc3s1)[C@@H]1C=C[C@H]2C1", "note": "[Example 26, (1R,2S,6R,7S)-4-[6-[[3-(trifluoromethyl)-2-pyridyl]oxy]-1,3-benzothiazol-2-yl]-4-azatricyclo[5.2.1.02,6]dec-8-ene-3,5-dione]", "EC50": "1 to 5"}
{"smiles": "Cc1ccnc(Oc2ccc3nc(NC(=O)[C@@H]4C5C=CC(C5)[C@@H]4C(=O)O)sc3c2)c1", "note": "(stereo partly drawn) [Example 29, 3-[[6-[(4-methyl-2-pyridyl)oxy]-1,3-benzothiazol-2-yl]carbamoyl]bicyclo[2.2.1]hept-5-ene-2-carboxylic acid]", "EC50": "< 1"}
{"smiles": "Cc1ccnc(Oc2ccc3nc(N4C(=O)[C@@H]5C6C=CC(C6)[C@@H]5C4=O)sc3c2)c1", "note": "[Example 30]", "EC50": "< 1"}
{"smiles": "N#Cc1ccnc(Oc2ccc3nc(N4C(=O)[C@@H]5[C@H](C4=O)[C@@H]4C=C[C@H]5C4)sc3c2)c1", "note": "[Example 31, 2-[[2-[(1R,2S,6R,7S)-3,5-dioxo-4-azatricyclo[5.2.1.02,6]dec-8-en-4-yl]-1,3-benzothiazol-6-yl]oxy]pyridine-4-carbonitrile]", "EC50": "1 to 5"}
{"smiles": "O=C(Nc1nc2ccc(Oc3ccnc(C(F)(F)F)c3)cc2s1)[C@@H]1C2C=CC(C2)[C@@H]1C(=O)O", "note": "(stereo partly drawn) [Example 32, 3-[[6-[[2-(trifluoromethyl)-4-pyridyl]oxy]-1,3-benzothiazol-2-yl]carbamoyl]bicyclo[2.2.1]hept-5-ene-2-carboxylic acid]", "EC50": "< 1"}
{"smiles": "O=C1[C@@H]2[C@H](C(=O)N1c1nc3ccc(Oc4cccc(C(F)(F)F)n4)cc3s1)[C@@H]1C=C[C@H]2C1", "note": "[Example 34, (1R,2S,6R,7S)-4-[6-[[6-(trifluoromethyl)-2-pyridyl]oxy]-1,3-benzothiazol-2-yl]-4-azatricyclo[5.2.1.02,6]dec-8-ene-3,5-dione]", "EC50": "1 to 5"}
{"smiles": "O=C(Nc1nc2ccc(Oc3ccc(C(F)(F)F)cn3)cc2s1)[C@@H]1C2C=CC(C2)[C@@H]1C(=O)O", "note": "(stereo partly drawn) [Example 35, 3-[[6-[[5-(trifluoromethyl)-2-pyridyl]oxy]-1,3-benzothiazol-2-yl]carbamoyl]bicyclo[2.2.1]hept-5-ene-2-carboxylic acid]", "EC50": "1 to 5"}
{"smiles": "O=C1[C@@H]2[C@H](C(=O)N1c1nc3ccc(Oc4ccc(C(F)(F)F)cn4)cc3s1)[C@@H]1C=C[C@H]2C1", "note": "[Example 36, (1R,2S,6R,7S)-4-[6-[[5-(trifluoromethyl)-2-pyridyl]oxy]-1,3-benzothiazol-2-yl]-4-azatricyclo[5.2.1.02,6]dec-8-ene-3,5-dione]", "EC50": "< 1"}
{"smiles": "O=C(Nc1nc2ccc(Oc3ccc(Br)cn3)cc2s1)[C@@H]1C2C=CC(C2)[C@@H]1C(=O)O", "note": "(stereo partly drawn) [Example 37, 3-[[6-[(5-bromo-2-pyridyl)oxy]-1,3-benzothiazol-2-yl]carbamoyl]bicyclo [2.2.1]hept-5-ene-2-carboxylic acid]", "EC50": "1 to 5"}
{"smiles": "O=C(O)C1C2C=CC(C2)C1C(=O)Nc1nc2ccc([N+](=O)[O-])cc2s1", "note": "(stereo not drawn) [Example 38, 3-[(6-nitro-1,3-benzothiazol-2-yl)carbamoyl]bicyclo[2.2.1]hept-5-ene-2-carboxylic acid]", "EC50": "1 to 5"}
{"smiles": "COC(=O)c1ccc2nc(NC(=O)[C@@H]3C4C=CC(C4)[C@@H]3C(=O)O)sc2c1", "note": "(stereo partly drawn) [Example 41, 3-[(6-methoxycarbonyl-1,3-benzothiazol-2-yl)carbamoyl]bicyclo[2.2.1]hept-5-ene-2-carboxylic acid]", "EC50": "1 to 5"}
{"test_system": "M. tuberculosis H37Rv_gfp", "assay_type": "cell-based, Mycobacterium tuberculosis", "details": "in combination with pretomanid, unit inferred; read-out: average EC50 H37Rv_gfp", "units": {"EC50": "µM"}}
{"smiles": "CCOc1ccc2nc(NC(=O)[C@@H]3C4C=CC(C4)[C@@H]3C(=O)O)sc2c1", "note": "(stereo partly drawn) [Example 7, 3-[(6-ethoxy-1,3-benzothiazol-2-yl)carbamoyl]bicyclo[2.2.1]hept-5-ene-2-carboxylic acid]", "EC50": 0.15}
{"smiles": "O=C(Nc1nc2ccc(Oc3ccc(F)cc3)cc2s1)[C@@H]1C2C=CC(C2)[C@@H]1C(=O)O", "note": "(stereo partly drawn) [Example 21, 3-[[6-(4-fluorophenoxy)-1,3-benzothiazol-2-yl]carbamoyl]bicyclo[2.2.1]hept-5-ene-2-carboxylic acid]", "EC50": 0.27}
{"smiles": "O=C(Nc1nc2ccc(Oc3ccnc(C(F)(F)F)c3)cc2s1)[C@@H]1C2C=CC(C2)[C@@H]1C(=O)O", "note": "(stereo partly drawn) [Example 32, 3-[[6-[[2-(trifluoromethyl)-4-pyridyl]oxy]-1,3-benzothiazol-2-yl]carbamoyl]bicyclo[2.2.1]hept-5-ene-2-carboxylic acid]", "EC50": 0.32}
{"smiles": "O=C1[C@@H]2[C@H](C(=O)N1c1nc3ccc(Oc4ccc(C(F)(F)F)cn4)cc3s1)[C@@H]1C=C[C@H]2C1", "note": "[Example 36, (1R,2S,6R,7S)-4-[6-[[5-(trifluoromethyl)-2-pyridyl]oxy]-1,3-benzothiazol-2-yl]-4-azatricyclo[5.2.1.02,6]dec-8-ene-3,5-dione]", "EC50": 0.22}
{"test_system": "M. tuberculosis H37Rv_gfp", "assay_type": "cell-based, Mycobacterium tuberculosis", "details": "read-out: EC50 H37Rv_gfp", "units": {"EC50": "µM"}}
{"smiles": "O=C1[C@@H]2[C@H](C(=O)N1c1nc3ccc(Oc4cc(C(F)(F)F)ccn4)cc3s1)[C@@H]1C=C[C@H]2C1", "note": "[Example 28, (1R,2S,6R,7S)-4-[6-[[4-(trifluoromethyl)-2-pyridyl]oxy]-1,3-benzothiazol-2-yl]-4-azatricyclo[5.2.1.02,6]dec-8-ene-3,5-dione]", "EC50": "< 1"}
{"smiles": "N#Cc1ccc2nc(NC(=O)[C@@H]3C4C=CC(C4)[C@@H]3C(=O)O)sc2c1", "note": "(stereo partly drawn) [Example 40, 3-[(6-cyano-1,3-benzothiazol-2-yl)carbamoyl]bicyclo[2.2.1]hept-5-ene-2-carboxylic acid]", "EC50": "1 to 5"}
